Test results published in patent US11229651B2, “Prophylaxis and treatment of a neurodegenerative disease not based on a protein-folding disorder” (Eberhard Karls Universität Tübingen Medizinische Fakultät, priority 2013, dated 2022).

Experiments:
[1] = test system: photoreceptors of cultivated retinas from rats mutated in the rhodopsin (P23H); experiment: TUNEL assay on retinal organ cultures from P23H rhodopsin transgenic rats; format: cell-based, rat; details: for amount of dying photoreceptors (percentage of TUNEL positive cells in the outer nuclear layer (ONL) vs total nuclei in the ONL): P23H mutant retinal cultures, PN9 + 6 days in vitro, compared with untreated and DMSO treated controls, FIG. 3A; for survival of photoreceptors in radial sections: P23H retinal organ cultures, compared with DMSO control, FIG. 2
From the text: Homozygous P23H rhodopsin transgenic rats (produced by Chrysalis DNX Transgenic Sciences, Princeton, N.J., United States of America) of the line Tg (P23H) 1 Lay (P23H-1) were kindly provided by Dr. M. M. LaVail (University of California, San Francisco, Calif., United States of America) and bred in the Animal Housing Facility in the Center for Ophthalmology in Tübingen. Heterozygous P23H rats were employed, obtained by crossing with wt, CD rats (CDH IGS rat; Charles River, Germany) to reflect the genetic background of autosomal-dominant retinitis pigmentosa (ADRP).
Retinas of postnatal day 9 (PN9) of P23H transgenic rats were cultivated for six days (DIVE) that correspond to PN15, i.e. the peak of degeneration in in vivo aged-matched mutants. The day of birth was denoted as P0. For radial sections, cultures were immersed in 4% paraformaldehyde in 0.1 M phosphate buffer (PB; pH 7.4) for 30 minutes at 4° C. and embedded in cryomatrix (Tissue-Tek, Leica, Bensheim, Germany). The radial sections (15 μm thick) were processed immediately or stored at […]
The retinas were isolated from nine-days-old P23H rats with the retinal pigment epithelium (RPE) attached essentially as described previously in Caffe et al. (2001), “Mouse retina explants after long-term culture in serum free medium”, J. Chem. Neuroanat. 22(4): 263-73, and Arango-Gonzalez et al. (2010), “In vivo and in vitro devel-opment of S- and M-cones in rat retina”, Invest. Ophthalmol. Vis. Sci. 2010 October; 51(10):5320-7. Briefly, the eyes of decapitated rats were enucleated in aseptic environment and pretreated with 12% proteinase K (ICN Biomedicals Inc., OH, United States of America) for 15 minutes at 37° C. in R16 serum-free culture medium (Invitrogen Life Technologies, Paisley, United Kingdom). The enzymatic digestion was stopped by the addition of 20% fetal bovine serum. Retina and RPE were dissected and four radial sections were made to flatten the tissue. The tissue was transferred to a 0.5 μm polycar-bonate membrane (Corning Life Sciences, Lowell, Mass., United States of America), with the RPE facing the membrane. The inserts were placed into six well culture plates and incubated with R16 nutrient medium at 36.5° C. The retina was left in R16 culture medium without a treatment for one day to allow an adaptation to the culture conditions. The medium was changed at DIV1, DIV3, and DIV5, and the new medium either contained ML240 (1 μM or […]) or EerII (1 μM or 20 μM). Both components were pre-diluted in dimethyl sulfoxide (DMSO, Sigma). For controls, the same amount of DMSO (0.05% or 1% respectively) was diluted in culture medium. The cultures were fixed at DIVE and analyzed as radial sections. […]

[2] = test system: photoreceptors of cultivated retinas from wild-type rats; experiment: TUNEL assay on retinal organ cultures from wild-type rats; format: cell-based, rat; details: for reduction of percentage of TUNEL positive cells in the ONL: WT cultivated retinas, compared with controls, FIG. 3B, **p<0.01, ***p<0.001; for survival of photoreceptors in radial sections: wild-type retinal organ cultures, compared with DMSO control, FIG. 2

With CC1(C)C(N(O)C(=O)Nc2ccc(Cl)cc2)N(c2ccc(Cl)cc2)C(=O)N1CC(=O)N/N=C/C=C/c1ccc([N+](=O)[O-])o1 (centres unmarked) [EerI, Eeyarestatin I] the “amount of dying photoreceptors (percentage of TUNEL positive cells in the outer nuclear layer (ONL) vs total nuclei in the ONL)” value [1] was “significantly reduce”, the “survival of photoreceptors in radial sections” value (shortened to “survival of photoreceptors”) [1] was “significant increase of the survival” and the “reduction of percentage of TUNEL positive cells in the ONL” value [2] was “not significantly”. The “survival of photoreceptors” value [2] was “significant increase of the survival”.

For COc1cccc2c(NCc3ccccc3)nc(-n3c(N)nc4ccccc43)nc12 [ML240], the “amount of dying photoreceptors (percentage of TUNEL positive cells in the outer nuclear layer (ONL) vs total nuclei in the ONL)” value [1] was “significantly reduce”, the “survival of photoreceptors” value [1] was “significant increase of the survival” and the “reduction of percentage of TUNEL positive cells in the ONL” value [2] was “significantly”. For the same compound, the “survival of photoreceptors” value [2] was “significant increase of the survival”.
